Experimental data published in US20230226079A1, “METHODS AND COMPOSITIONS FOR TREATMENT OF SOLID TUMORS” (Saint Louis University, priority 2022, published 2023).
≈ marks a conversion by molar mass, not a printed value. Entries after “also recorded” stand apart in the source; their conditions may differ.

How the values were obtained:
[1] = system: HNC (JHU022, JHU029, Ca127) cell lines; format: cell-based
Protocol: Ca127, JHU029, JHU022 and NOK were seeded in 96 well-plate (5000 cells/well) and cells were treated with different concentration of M-I for 48 h. There were untreated control and DMSO treated vehicle control group for comparison. Cytotoxicity assay was performed using Cell Counting Kit-8 (Dojindo Molecular Technology, Rockville, Md., USA) according to manufacturer instruction.
Due to their limited reported biology, the Inventors have selected a few triterpenoids and triterpene glycosides, based on their availability, for preliminary in vitro screening against HNC (JHU022, JHU029, Ca127) cell lines. The Inventors identified momordicine-I (M-I) as one of the chemical constituents at the retention time of 21.06 min in the BME (FIG. 1A). The M-I [C30H4804, PubChem CID: 14807332; IUPAC Name: (3S, 7S, 8S, 9R, 10R, 13R, 14S, 17R) 3,7-dihydroxy-17-(4-hydroxy-6-methylhept-5-en-2-yl)-4,4,13,14-tetramethyl-2,3,7,8,10,11, 12,15, 16,17-decahydro-1H-cyclopenta[a]phenanthrene-9-carbaldehyde] is a white crystalline solid that belongs to the cucurbitane-type triterpene class (FIG. 1B). […] Other compounds, mom ordicoside K (MK), and karavilagenin D (KD), were also examined on HNC cell cytotoxicity assay. These, two other compounds required much higher amounts (>50 ug/mL) even for -40% cell death.

c-Met and c-Myc [2] = assay: Western blot of JHU029 tumor lysates; format: in vivo, nude mice; conditions: JHU029 xenograft tumors
Protocol: (§1) Lysates from control, BME or M-I treated cells and tumors were prepared using 2 SDS sample buffer and subjected to western blot analysis using specific antibodies to c-Met (1:500, Cell Signaling Technology, CST, Denvers, Mass., USA,), phospho-STAT3 (pSTAT3-Tyr-705) (1:1000, CST), total STAT3 (1:1000, CST), c-Myc (1:1000, CST), surviving (1:500, Santa Cruz Biotechnology, SBT, Dallas, Tex., USA) and cyclin D1 (1: 500, SBT). HRP conjugated anti-mouse or anti-rabbit secondary antibodies were purchased from Bio-Rad (Hercules, Calif., USA). The blot was reprobed with HRP conjugated -actin antibody (1:5000; SBT) to compare protein load in each lane. Densitometry analysis was done using Image J software (NIH, Bethesda, Md., USA).
(§2) JHU029 or Ca127 cells (1.5 10^6) containing 40% Matrigel were injected subcutaneously into the flank of BALB/c athymic nude mice (7-8 weeks old). When the palpable tumor was developed (>60 mm3), mice were divided into three groups randomly, 5 mice in each group. The control group was without any treatment. The BME group received 30% (v/v) BME through drinking water. M-I group received 30 mg/kg dose of M-I once in day, every day. Body weight was monitored, and tumor size was measured using a slide caliper and volume was calculated using the formula 1/2 L X W2. After animal sacrifice tumors were dissected out and snap frozen in liquid nitrogen for further analysis. […]

[3] = literature; listed as Momordicine I; cited from earlier work
[4] = system: normal mammary epithelial cells; assay: Cytotoxicity in normal mammary epithelial cells; format: cell-based, human
Toxicity study, 5 days = format: in vivo; conditions: BME 30% in drinking water
Protocol: For toxicity study, C57B1/6 male mice were received either 30% BME through drinking water or 20 mg/kg of M-I twice a day or 30 mg/kg of M-I once a day by IP injection for 5 days. There were three mice in each group, including untreated control. Blood was collected on day 6, and serum was prepared. Serum parameters related to hepatotoxicity (total bilirubin, alanine transaminase, aspartate transaminase, and alkaline phosphatase) and nephrotoxicity (urea and creatinine) were performed.

[5] = system: 4T1 (mouse) cells implanted into the mammary fat pad; assay: Orthotopic syngeneic breast cancer mouse model (4T1); format: in vivo, Balb/c mice; conditions: M-I 30 mg/mouse/day ip; pilot study
Protocol: FIG. 12 illustrates 4T1 cells tumor bearing mice were randomly divided into two groups mice (n=4). Starting day of treatment by M-I (red color) or vehicle (control-blue color) graph was marked by up arrow.
The Inventors further evaluated the efficacy of M-I in orthotopic breast cancer mouse models in a pilot study. Syngeneic breast cancer model using 4T1 (mouse) cells implanted into the mammary fat pad of Balb/c mice. Mice were divided into two groups. One group received M-I (30 mg/mouse/day) and the other group received vehicle as a control by ip.

[6] = Pharmacokinetic study, single dose; format: in vivo, mice; conditions: for AUC (% Extrap): C57BI/6 male mice
Protocol: The pharmacokinetic (PK) study of M-I was performed in male C57B1/6 mice. A single dose of M-I (formulated at 2 mg/mL dissolved in 5% DMSO/95% of a 30% w:v Captisol solution) was administered either by intraperitoneal injection (IP group, n=3) or oral gavage (PO group, n=3). After dosing, 20 uL blood samples were collected into heparin pre-coated tubes at 5 min, 15 min, 30 min, 1 h, 2 h, 4 h, 6 h, 8 h and 24 h. Samples were centrifuged, and the plasma collected. M-I concentration was determined using liquid chromatography-mass spectrometry/mass spectrometry (LC-MS/MS) as described earlier (Fuerst et al. (2018) Chem.; 26, 4984-4995).

MDA-MB-231 cells = assay: Cell viability of MDA-MB-231 cells; format: cell-based; conditions: Homo sapiens, 72h
Protocol: FIG. 8 illustrates 4T1 and MDA-MB-231 cells treated with M-I at indicated doses for 72h. The viability of control cells was arbitrarily set to 100%. Results shown are an average of three independent experiments. Data are represented as mean±SD.
The Inventors tested human MDA-MB-231 and mouse 4T1 cells in dose dependent manner (FIG. 8). […] The Inventors also tested other compounds in TNBC cell cytotoxicity assays, but these required much higher amounts (>[…]) even for ˜40% cell death.

c-Met and c-Myc [7] = assay: Western blot of Ca127 tumor lysates; format: in vivo, nude mice; conditions: Ca127 xenograft tumors
Protocol: as §1, §2

CC(C)=CC(O)CC(C)[C@H]1CC[C@@]2(C)[C@@H]3[C@@H](O)C=C4[C@@H](CC[C@H](O)C4(C)C)[C@]3(C=O)CC[C@]12C (stereo partly drawn) [M-I, (3S, 7S, 8S, 9R, 10R, 13R, 14S, 17R) 3,7-dihydroxy-17-(4-hydroxy-6-methylhept-5-en-2-yl)-4,4,13,14-tetramethyl-2,3,7,8,10,11, 12,15, 16,17-decahydro-1H-cyclopenta[a]phenanthrene-9-carbaldehyde]
inhibition of HNC cells in cytotoxicity assay [1]: inhibited HNS cells in a dose-dependent manner
expression of c-Met and c-Myc in tumors versus untreated control (c-Met and c-Myc [2]): significant reduction
Reported Biology [3]: stimulate insulin; also recorded: cardiac fibrosis
effect on human normal mammary epithelial cells [4]: minimum effect
body weight in toxicity study (Toxicity study, 5 days; M-I 20 mg/kg twice a day or 30 mg/kg once a day IP, five days): stable
serum total bilirubin, alanine transaminase, aspartate transaminase, alkaline phosphatase, creatinine, urea and glucose versus untreated control (Toxicity study, 5 days; blood on day six, M-I IP five days): comparable
tumor volumes versus vehicle control [5]: significantly reduced
adverse events after single dose, IP group ([6]; 20 mg/kg IP): No adverse events
adverse events after single dose, oral group ([6]; 20 mg/kg PO, starting four hours post-dose, not resolved by 8 h, normal after twenty-four hours): loose stool
AUC (% Extrap) ([6]; 20 mg/Kg IP): 0.33 ± 0.08%
AUC (% Extrap) ([6]; 20 mg/Kg PO): 6.84 ± 1.5%
IC50 (MDA-MB-231 cells): 12 µg/mL (≈ 25.4 µM)
c-Met and c-Myc expression in tumors versus control (c-Met and c-Myc [7]): significant reduction
